Converted amounts (≈) assume the structure as drawn. The source made the active and inactive calls. The calls are words filed in the database; no cut-off is given here.

18 molecules from ChEMBL document CHEMBL1146913, “Symmetrical and unsymmetrical analogues of isoxyl; active agents against Mycobacterium tuberculosis” (2006) can be followed below.

Experiment [1] concerns Mycobacterium tuberculosis. The experiment can be described thus: Inhibition of oleate production in Mycobacterium bovis BCG. It counts as functional. Particulars: for inhibition: variant bovis BCG.
Experiment [2] deals with Mycobacterium tuberculosis. As to the kind of experiment: Antibacterial activity against Mycobacterium bovis BCG. It counts as functional. Particulars: variant bovis BCG.

A word on the MIC99: it is an inhibitory concentration at the 99% level, which refers to growth in some studies and to a panel of isolates in others. For `CCCCOc1ccc(NC(=S)Nc2ccc(SCCC)cc2)cc1`, the inhibition result in experiment [1] is “inactive”. In addition, the MIC99 in experiment [2] was 0.06 µg/mL (≈ 0.16 µM).
One may read the Inhibition as how much of the control response was suppressed. A lower Inhibition goes with a weak effect. In experiment [1], `CC(C)CCOc1ccc(NC(=S)Nc2ccc(OCCC(C)C)cc2)cc1` [TIOCARLIDE] registered an Inhibition of 61.02%. Further, the MIC99 in experiment [2] came out at 1.1 µg/mL (≈ 2.75 µM).
Take `CCCCOc1ccc(NC(=S)Nc2ccc(CCCC)cc2)cc1`: the inhibition result in experiment [1] was “inactive”. For the same molecule, the MIC99 in experiment [2] amounted to 0.7 µg/mL (≈ 1.96 µM).
In experiment [1], `CC(C)COc1ccc(NC(=S)Nc2ccc(OCC(C)C)cc2)cc1` came in with an Inhibition of 51.62%. Besides, the MIC99 in experiment [2] came to 0.9 µg/mL (≈ 2.42 µM).
In the same order, the values of `CCCCOc1ccc(NC(=S)Nc2ccc(OCCCC)cc2)cc1` are 94.25% and 0.5 µg/mL (≈ 1.34 µM).
Molecule `CCCCc1ccc(NC(=S)Nc2ccc(OCCC(C)C)cc2)cc1` showed an Inhibition in experiment [1] of 14.82%. In experiment [2], this molecule gave an MIC99 of 0.6 µg/mL (≈ 1.62 µM).
Turning to `CCCCc1ccc(NC(=S)Nc2ccc(OCCC)cc2)cc1`, the inhibition entry in experiment [1] was “inactive”. Also, in experiment [2], the MIC99 came out at 0.06 µg/mL (≈ 0.175 µM).
`CC(C)CCOc1ccc(NC(=S)Nc2ccc(OCC(C)C)cc2)cc1` came in with an Inhibition in experiment [1] of 19.24%. The MIC99 in experiment [2] was 0.9 µg/mL (≈ 2.33 µM).
The corresponding values for `CCCSc1ccc(NC(=S)Nc2ccc(OCCC(C)C)cc2)cc1` are 53.32% and 0.5 µg/mL (≈ 1.29 µM).
Turning to `CC(C)CSc1ccc(NC(=S)Nc2ccc(SCC(C)C)cc2)cc1`, the inhibition result in experiment [1] is “inactive”. In addition, the MIC99 in experiment [2] came out at 0.6 µg/mL (≈ 1.48 µM).
In experiment [1], `CC(C)CCOc1ccc(NC(=S)Nc2ccc(Cc3ccccc3)cc2)cc1` yielded an Inhibition of 48.83%. The molecule also gave an MIC99 in experiment [2] of 1.1 µg/mL (≈ 2.72 µM).
In experiment [1], `CCCCOc1ccc(NC(=S)Nc2ccc(OCCC(C)C)cc2)cc1` had an Inhibition of 79.96%. This molecule registered an MIC99 in experiment [2] of 0.4 µg/mL (≈ 1.03 µM).
The corresponding values for `CCCCOc1ccc(NC(=S)Nc2ccc(SCC(C)C)cc2)cc1` are 17.75% and 0.7 µg/mL (≈ 1.8 µM).
Consider `CCCCc1ccc(NC(=S)Nc2ccc(CCCC)cc2)cc1`, for which the inhibition entry in experiment [1] was “inactive”. Further, the MIC99 in experiment [2] came to 0.075 µg/mL (≈ 0.22 µM).
Consider `CCCCOc1ccc(NC(=S)Nc2ccc(Cc3ccccc3)cc2)cc1`, for which, in experiment [1], the Inhibition turned out to be 66.15%. The molecule also came in with an MIC99 in experiment [2] of 1.5 µg/mL (≈ 3.84 µM).
In the same order, the values of `CCCCOc1ccc(NC(=S)Nc2ccc(OCC(C)C)cc2)cc1` are 63.99% and 0.6 µg/mL (≈ 1.61 µM).
As for `CCCSc1ccc(NC(=S)Nc2ccc(Cc3ccccc3)cc2)cc1`, in experiment [1], the inhibition result is “inactive”. Also, in experiment [2], the MIC99 amounted to 1.75 µg/mL (≈ 4.46 µM).
Regarding `CCCOc1ccc(NC(=S)Nc2ccc(OCCC)cc2)cc1`, in experiment [1], the Inhibition was found to be 90.76%. The same molecule registered an MIC99 in experiment [2] of 0.5 µg/mL (≈ 1.45 µM).
